Results on two molecules are retold here after article PMC3527569, “Anti-Inflammatory and Vasoprotective Activity of a Retroviral-Derived Peptide, Homologous to Human Endogenous Retroviruses: Endothelial Cell Effects” (PLoS ONE, 2012).

pIC50: −log10 of the molar value. Where a SMILES comes first, the peptide text is derived from it. Bridges are numbered along the chain shown (N, C = ends). Roman numbers before positions name the chains, in order.

One assay concerns IL-1β. Briefly: LPS-induced IL-1β release by human PBMC (sandwich ELISA). Type of assay: cell-based. The following applies: 18-24 h, peptide 10 nM-100 µM in triplicate, IC50 estimated from graph. On the procedure: (§1) Cytokine Assays: One-hundred µL of PBMC (2 x 10^6/ml in Complete Medium) were added to each well of a flat-bottom, 96-well tissue culture plate. To each well was then added 50 µL of media or peptide (4X desired final concentration; in Complete Medium) and 50 µL of lipopolysaccharide (LPS; S. typhosa; Sigma, St. Louis, MO; 400 ng/ml Complete Medium). Each peptide was tested in triplicate at 5 log10 concentrations ranging from 100 µM to 10 nM. Plates were incubate 18-24 h at 37°C in 5% humidified CO2. Plates were then centrifuged and 100 µL of supernatant removed from each well and stored frozen at -80°C until assayed. Cytokines (TNF-α, IL-1β, IL-6, GM-CSF) were measured by sandwich ELISA assays (R & D Systems; Minneapolis, MN) using the manufacturer’s instructions. The released cytokine concentration was determined from a standard curve using recombinant cytokine provided with each kit.

The test system of a further assay is IL-6. Nature of the assay: LPS-induced IL-6 release by human PBMC (sandwich ELISA). The following applies: 18-24 h, peptide 10 nM-100 µM in triplicate, IC50 estimated from graph. The class given is cell-based. On the procedure: as §1
Another assay relates to GM-CSF. Briefly: LPS-induced GM-CSF release by human PBMC (sandwich ELISA). The note with it: 18-24 h, peptide 10 nM-100 µM in triplicate, IC50 estimated from graph. The class given is cell-based. On the procedure:
as §1

The subject of the next assay is LTB4. Nature of the assay: Zymosan-induced LTB4 release by adherent human PBMC. The class given is cell-based. The note with it: 1 h peptide then Zymosan 90 min, IC50 estimated from graph. The procedure: (§2) Platelet Activating Factor (PAF) and Leukotriene B4 (LTB4) Assays: PBMC were prepared as described above and adjusted to 3.3 x 10^6 cells/ml in RPMI-1640 medium containing 5 mg/ml HSA (Sigma, St. Louis, MO). To each well of a 48-well tissue culture plate was added 0.3 ml of cell suspension. The plate was incubated for 2 h at 37°C and 5% CO2 to allow cells to adhere. The wells were then washed 3X with HHBSS (Hank’s Balanced Salt Solution with 5 mg/ml HSA) at room temperature (RT). One-hundred seventy-five µL of HHBSS or test material in HHBSS was then added to each well and the plates incubated for 1 h at 37°C and 5% CO2. Samples were set up in quadruplicate. To each of duplicate wells for each sample was then added 175 µL of HHBSS or HHBSS containing 600 µg/ml of Zymosan (Sigma, St. Louis, MO). The plates were then incubated for 90 min at 37°C and 5% CO2. The plates were centrifuged and supernatants removed for quantitation of PAF or LTB4 according to the kit manufacturer’s (Amersham Pharmacia; Piscataway, NJ) instructions. The released PAF or LTB4 concentration was determined from a standard curve using standards provided with each kit.

The next assay concerns PAF. Nature of the assay: Zymosan-induced PAF release by adherent human PBMC. The class given is cell-based. The note with it: 1 h peptide then Zymosan 90 min, IC50 estimated from graph. On the procedure:
as §2

A further assay relates to TF. Briefly: Monocyte-associated tissue factor (TF) ELISA. Type of assay: cell-based. The following applies: human PBMC cultured 18-24 h with LPS; cell lysate, IMMUBIND Tissue Factor ELISA; IC50 estimated from graph. The procedure: Tissue Factor (TF): Monocyte-associated TF was quantitated in the following manner. PBMC were cultured in 48-well tissue culture plates as described below for PAF and LTB4 assays. At the end of the culture period (18-24 h) the supernatants were removed and stored frozen for cytokine assays. The wells of the plates were washed once with PBS and to each well was added 100 µL of Triton X-100 (10% [v/v] in H2O; Sigma, St. Louis, MO). The plates were placed on an orbital shaker for 12-18 h at 4°C and a speed of ~ 125 rpm. To each well was added 900 µL of sample buffer (10 mM PBS, pH 7.4, with 1% [w/v] BSA). The contents of each well were mixed well and removed for quantitation of TF using an IMMUBIND® Tissue Factor ELISA kit (American Diagnostica; Stamford, CT) according to the manufacturer’s instructions. Samples were diluted 1:10 in sample buffer prior to being assayed.

The test system of the next assay is Chemotaxis. Nature of the assay: Monocyte and neutrophil chemotaxis to FMLP (micro-chemotaxis chamber). Type of assay: cell-based, human. The following applies: cells pre-incubated 60 min at 37°C with peptide (10 nM-100 µM), FMLP 10^-8 or 10^-9 M, 90 min, triplicate. On the procedure: Monocyte and Neutrophil Chemotaxis: For monocyte chemotaxis, PBMC were prepared as described above but washed and resuspended to 2 x 10^6/ml in HBSS (10 mM HEPES, 0.5% BSA [low-endotoxin; Sigma, St. Louis, MO], pH 7.0). The percentage of monocytes in the cell preparation was determined by myeloperoxidase staining of fixed, cytospin-prepared slides and usually ranged between 15-25%. For neutrophil chemotaxis, neutrophils were prepared as described above and routinely contained 97-99% neutrophils. Effects of test materials on chemotaxis were measured using 48-well micro-chemotaxis chambers (Neuro-Probe; Cabin John, MD). Briefly, to 450 µL of cell suspension in a polypropylene centrifuge tube was added 50 µL of buffer or test material. Each sample was tested in triplicate. The tubes were then incubated for 60 min at 37°C in a shaking water bath. […] The stained filters were mounted on slides and the number of cells migrating though the filters determined under 600X magnification for 5 fields/well. Inhibition of chemotaxis was determined using that slide for which the positive control (untreated cells; either 10^-8 or 10^-9 M FMLP) gave the strongest response and was calculated in the following manner: […]

The next assay relates to Platelet Aggregation. Briefly: Platelet aggregation. The class given is cell-based, human. The following applies: for pIC50: human blood cells.
The next assay concerns HUVEC. Briefly: Staurosporine-induced apoptosis in HUVEC (Cell Death Detection ELISA). The class given is cell-based, human. The note with it: for protection against staurosporine-induced apoptosis: 50 µM peptide 3 h before staurosporine (500 nM), measured 18 h after staurosporine (Figure 11B). On the procedure:
Apoptosis was measured in HUVEC using the Cell Death Detection ELISA^PLUS kit (Roche Diagnostics; Indianapolis, IN) according to the manufacturer's instructions. This assay is based on a quantitative sandwich-enzyme-immunoassay using mouse monoclonal antibodies directed against both DNA and histones, respectively. It allows the specific determination of mono- and oligonucleosomes in the cytoplasmic fraction of cell lysates (apoptosis) and in the supernatant of dying cells (necrosis). The apoptotic index (AI) was calculated as
where treatment refers to use of a known apoptosis- or necrosis-inducing agent (staurosporine, TNF-α).

Take `CC(C)C[C@H](NC(=O)CNC(=O)CNC(=O)[C@H](CCC(=O)O)NC(=O)[C@H](CCCCN)NC(=O)[C@H](CC(C)C)NC(=O)[C@H](Cc1ccccc1)NC(=O)[C@H](CC(C)C)NC(=O)[C@H](CC(C)C)NC(=O)[C@H](CC(=O)O)NC(=O)[C@H](CC(C)C)NC(=O)CNC(=O)[C@H](CCCNC(=N)N)NC(=O)[C@H](CCCNC(=N)N)NC(=O)[C@H](CC(N)=O)NC(=O)[C@H](CCC(N)=O)NC(=O)[C@@H](N)CC(C)C)C(=O)N[C@@H](CSSC[C@H](NC(=O)[C@H](CC(C)C)NC(=O)CNC(=O)CNC(=O)[C@H](CCC(=O)O)NC(=O)[C@H](CCCCN)NC(=O)[C@H](CC(C)C)NC(=O)[C@H](Cc1ccccc1)NC(=O)[C@H](CC(C)C)NC(=O)[C@H](CC(C)C)NC(=O)[C@H](CC(=O)O)NC(=O)[C@H](CC(C)C)NC(=O)CNC(=O)[C@H](CCCNC(=N)N)NC(=O)[C@H](CCCNC(=N)N)NC(=O)[C@H](CC(N)=O)NC(=O)[C@H](CCC(N)=O)NC(=O)[C@@H](N)CC(C)C)C(=O)O)C(=O)O` [MN10021] (I: H-LQNRRGLDLLFLKEGGLC-OH / II: H-LQNRRGLDLLFLKEGGLC-OH; disulfide I:18-II:18): the pIC50 was 4.77 with IL-1β; below 4.00 in the assay on IL-6; 5.10 in the assay with GM-CSF; 5.21 in the assay with LTB4; 4.90 with PAF; 4.90 in the assay with TF. Moreover, the pIC50 was 6.60 with Chemotaxis and 5.30 in the assay on Platelet Aggregation. Also, the “effect on ADP- and epinephrine-induced human platelet aggregation” value in the assay with Platelet Aggregation (in vitro, data not shown) is “inhibit”. For the same molecule, the “protection against staurosporine-induced apoptosis” value in the assay on HUVEC is on record as “significant protection”. The “effect of L-NAME pretreatment on protective effect against staurosporine-induced apoptosis” value in the assay with HUVEC (2 mM L-NAME 5 h, then 50 µM peptide 3 h, staurosporine 500 nM ON (Figure 12)) is on record as “no effect”. Also, in the assay on HUVEC (peptide added 3 h before staurosporine, up to 50 µM peptide, quadruplicate wells (Figure 10A, 10C)), the “maximal protection against staurosporine-induced apoptosis” value was around 60%.

For “H-LGGEKLFLLDGRNQLC-OH (disulfide (positions not given here)) [MN20050]”, the negative logarithm of the IC50 (pIC50) in the assay with IL-1β, in the assay with IL-6, with GM-CSF, in the assay on LTB4, with PAF and in the assay on TF was below 4.00 each time. In addition, the negative logarithm of the IC50 (pIC50) in the assay on Chemotaxis and in the assay with Platelet Aggregation was below 4.00 in each case. The “protection against staurosporine-induced apoptosis” value in the assay with HUVEC was “no protective effective”.
